The text below walks through data of paper PMC8276662, “Synergy of alanine and gentamicin to reduce nitric oxide for elevating killing efficacy to antibiotic-resistant Vibrio alginolyticus” (Virulence, 2021).

The structures appear in SMILES notation.

For the assay, the target named is T1, CysJ (rCysJ; NOS-like protein) (Vibrio alginolyticus, UniProt A0A2I3CBL6).
T1 construct: dimer by blue native PAGE
T1 sequence (A0A2I3CBL6 1-623): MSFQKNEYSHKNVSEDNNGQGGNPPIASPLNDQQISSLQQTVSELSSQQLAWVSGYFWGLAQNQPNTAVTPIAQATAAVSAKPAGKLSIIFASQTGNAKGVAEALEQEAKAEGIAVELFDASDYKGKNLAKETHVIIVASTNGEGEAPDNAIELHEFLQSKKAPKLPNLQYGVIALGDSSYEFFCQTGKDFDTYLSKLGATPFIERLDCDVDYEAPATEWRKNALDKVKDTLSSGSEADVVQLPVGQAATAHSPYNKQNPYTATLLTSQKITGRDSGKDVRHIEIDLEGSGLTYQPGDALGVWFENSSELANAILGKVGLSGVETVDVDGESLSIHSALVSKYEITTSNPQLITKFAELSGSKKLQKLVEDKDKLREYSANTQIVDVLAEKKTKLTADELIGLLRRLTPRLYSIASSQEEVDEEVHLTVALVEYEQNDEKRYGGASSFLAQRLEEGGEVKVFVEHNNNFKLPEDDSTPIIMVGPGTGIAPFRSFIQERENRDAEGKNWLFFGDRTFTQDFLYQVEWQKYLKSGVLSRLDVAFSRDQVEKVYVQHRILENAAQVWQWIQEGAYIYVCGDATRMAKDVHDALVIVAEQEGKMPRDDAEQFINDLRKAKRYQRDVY
The assay can be described thus: colorimetric nitric oxide synthase activity kit, A530. Format: biochemical. The conditions noted are these: 0.5 mM L-NMMA, preincubated 30 C 2 h (as described for lysate proteins); assay 37 C 15 min; mode not stated.

Turning to `CNC(=N)NCCC[C@H](N)C(=O)O` [L-NMMA], the “activity of NOS was reduced” value was “When L-NMMA was used, activity of NOS was reduced (Figure 8b)”.
